Target: Leucine-rich repeat serine/threonine-protein kinase 2 (Homo sapiens, UniProt Q5S007, G2019S)
Assay: Inhibition of Kinase tracer 236 binding to GST-tagged truncated human LRRK2 G2019S (970 to 2527 residues) mutant using fluorescein labeled LRRKtide peptide as substrate preincubated for 15 mins followed by substrate addition measured after 90 mins in presence of ATP at Km concentration by TR-FRET Lanthascreen assay

Sequence of Leucine-rich repeat serine/threonine-protein kinase 2 (Q5S007 whole entry G2019S, the tested form may be a part): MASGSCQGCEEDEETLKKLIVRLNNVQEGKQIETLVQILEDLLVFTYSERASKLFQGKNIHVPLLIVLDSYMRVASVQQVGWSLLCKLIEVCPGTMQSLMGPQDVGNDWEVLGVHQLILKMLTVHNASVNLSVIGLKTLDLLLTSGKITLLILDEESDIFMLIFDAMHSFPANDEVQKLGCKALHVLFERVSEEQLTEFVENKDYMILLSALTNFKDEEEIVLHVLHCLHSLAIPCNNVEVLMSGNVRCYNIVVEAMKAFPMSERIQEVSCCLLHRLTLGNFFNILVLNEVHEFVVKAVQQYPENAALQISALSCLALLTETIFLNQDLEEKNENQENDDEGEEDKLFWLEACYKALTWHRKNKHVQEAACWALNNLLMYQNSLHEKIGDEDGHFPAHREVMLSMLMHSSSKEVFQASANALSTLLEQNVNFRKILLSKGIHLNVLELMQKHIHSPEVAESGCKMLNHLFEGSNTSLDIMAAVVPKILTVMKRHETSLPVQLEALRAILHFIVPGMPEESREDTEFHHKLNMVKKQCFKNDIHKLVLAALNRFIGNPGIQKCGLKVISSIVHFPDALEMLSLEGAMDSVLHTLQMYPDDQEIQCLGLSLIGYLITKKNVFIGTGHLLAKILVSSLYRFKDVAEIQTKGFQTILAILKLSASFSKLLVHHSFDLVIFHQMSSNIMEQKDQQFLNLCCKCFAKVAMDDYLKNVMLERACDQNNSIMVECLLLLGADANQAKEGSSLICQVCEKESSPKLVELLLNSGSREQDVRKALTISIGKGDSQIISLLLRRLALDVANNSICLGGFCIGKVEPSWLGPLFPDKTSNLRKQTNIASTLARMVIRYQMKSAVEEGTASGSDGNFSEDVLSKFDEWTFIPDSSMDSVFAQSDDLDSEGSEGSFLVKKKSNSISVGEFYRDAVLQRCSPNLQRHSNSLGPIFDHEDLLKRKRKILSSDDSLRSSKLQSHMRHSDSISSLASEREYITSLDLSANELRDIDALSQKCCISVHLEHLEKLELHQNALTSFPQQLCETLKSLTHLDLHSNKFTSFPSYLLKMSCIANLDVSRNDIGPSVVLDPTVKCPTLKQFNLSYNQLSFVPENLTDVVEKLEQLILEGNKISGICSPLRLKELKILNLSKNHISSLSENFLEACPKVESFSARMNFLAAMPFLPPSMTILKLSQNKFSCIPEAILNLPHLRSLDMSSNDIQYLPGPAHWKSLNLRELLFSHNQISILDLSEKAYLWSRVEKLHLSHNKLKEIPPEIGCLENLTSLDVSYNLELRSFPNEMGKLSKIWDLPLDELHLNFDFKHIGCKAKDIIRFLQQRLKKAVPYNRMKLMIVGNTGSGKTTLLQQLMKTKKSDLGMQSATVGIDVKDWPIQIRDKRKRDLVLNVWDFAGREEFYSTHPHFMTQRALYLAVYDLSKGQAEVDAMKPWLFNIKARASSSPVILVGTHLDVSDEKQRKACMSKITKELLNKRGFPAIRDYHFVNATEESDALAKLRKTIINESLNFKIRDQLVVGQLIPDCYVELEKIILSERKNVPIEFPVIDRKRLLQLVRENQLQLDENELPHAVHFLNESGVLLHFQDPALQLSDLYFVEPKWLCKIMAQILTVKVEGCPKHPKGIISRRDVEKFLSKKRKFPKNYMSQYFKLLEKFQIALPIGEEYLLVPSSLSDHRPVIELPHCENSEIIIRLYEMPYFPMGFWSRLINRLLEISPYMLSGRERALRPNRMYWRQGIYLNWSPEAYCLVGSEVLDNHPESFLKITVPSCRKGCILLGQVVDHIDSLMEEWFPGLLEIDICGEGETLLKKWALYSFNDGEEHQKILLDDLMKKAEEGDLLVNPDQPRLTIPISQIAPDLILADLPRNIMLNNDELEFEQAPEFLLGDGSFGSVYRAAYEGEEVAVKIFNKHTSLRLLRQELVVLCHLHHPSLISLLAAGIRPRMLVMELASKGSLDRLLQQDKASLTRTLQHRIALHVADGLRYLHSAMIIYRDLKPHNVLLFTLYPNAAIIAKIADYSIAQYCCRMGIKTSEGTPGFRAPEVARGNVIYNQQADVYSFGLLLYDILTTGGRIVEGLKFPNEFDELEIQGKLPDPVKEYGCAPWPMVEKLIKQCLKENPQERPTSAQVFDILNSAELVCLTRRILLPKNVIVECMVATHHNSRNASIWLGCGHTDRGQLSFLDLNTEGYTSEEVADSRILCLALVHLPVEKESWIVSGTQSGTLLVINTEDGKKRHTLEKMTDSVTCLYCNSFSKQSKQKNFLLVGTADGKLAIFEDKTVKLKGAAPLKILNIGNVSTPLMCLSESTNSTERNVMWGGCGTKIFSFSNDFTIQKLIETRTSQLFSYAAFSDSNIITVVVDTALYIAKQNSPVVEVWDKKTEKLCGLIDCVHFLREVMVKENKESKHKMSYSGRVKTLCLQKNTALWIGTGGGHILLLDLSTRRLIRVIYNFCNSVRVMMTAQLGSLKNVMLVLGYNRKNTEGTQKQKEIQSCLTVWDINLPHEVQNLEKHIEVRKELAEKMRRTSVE

| IC50 | Compound |
| --- | --- |
| < 0.631 nM | Cc1c(Nc2ncc3cc(Cl)c(C4CCN(C5COCC5F)CC4)cc3n2)cnn1C1CC1 (stereo unspecified) |
| < 0.631 nM | N#CC1COCC1N1CCC(c2cc3nc(Nc4cnn(C5CC5)c4Cl)ncc3cc2Cl)CC1 (stereo unspecified) |
| < 0.631 nM | Cc1cc(Nc2ncc3cc(Cl)c(C4CCN(C5COC5)CC4)cc3n2)sn1 |
| < 0.631 nM | Cc1c(Nc2ncc3cc(Cl)c(C4CCN(C5COC5)[C@@H](C)C4)cc3n2)cnn1C1CC1 (stereo partly specified) |
| < 0.631 nM | Cc1c(Nc2ncc3cc(Cl)c(C4CCN(C5(C)COC5)CC4)cc3n2)cnn1C1CCOC1 (stereo unspecified) |
| < 0.631 nM | O=S1(=O)CC(N2CCC(c3cc4nc(Nc5cnn(C6CC6)c5Cl)ncc4cc3Cl)CC2)C1 |

Source: ChEMBL document CHEMBL4825716, “Novel N-Heteroaryl Quinazolin-2-amine Derivatives as LRRK2 Inhibitors for Treating Parkinson's Disease” (ACS Med Chem Lett, 2021)
